Assay [1] has as its system a number of different bacteria. The experiment in a line: Minimum inhibitory concentration (MIC), broth dilution. The format is cell-based. To be noted: MIC comparison. The protocol: (§1) The minimum inhibitory concentrations of (MIC) of CEME, CEMA and melittin were determined for a number of different bacteria (Table 2). Briefly, cells were grown overnight at 37°C in LB-S (Luria broth without any salt supplement) and diluted one in 10,000 in the same medium to give concentrations of about 10^4 to 10^5 CFU/ml. The broth dilutions were set up in a 96 well microtiter plate by putting 200µl of LB-S containing the initial concentration of antibiotic or compound in column 1 and 100 µl of the same medium in columns 2-12. The compounds were diluted by taking 100 µl of broth from column 1 and mixing it with column 2, resulting in a one in two dilution. This was continued to column 10. Finally, 10 µl of bacteria were pipetted into columns 1-11, and the plates incubated overnight at 37°C. The next day the plates were scored for growth in the wells, and the MIC determined.
In general terms: Broth dilution looks for growth in wells or tubes with falling amounts of substance.

In assay [2] the test system is S. typhimurium defensin sensitive strain (C590). The description is as above. To be noted: MIC comparison with parent strain. Format: cell-based. The protocol: as §1
The next assay has as its system P. aeruginosa H309. The experiment in a line: Lysozyme lysis assay (membrane permeabilization). The format is cell-based. To be noted: P. aeruginosa data only. The protocol:
Membrane permeabilization by polycationic compounds was measured in two different assays. The first assay measured membrane disruption by the ability of lysozyme to reach the periplasm and cause cell lysis. […] The uptake of tysozyme into whole cells due to membrane permeabilization by various compounds was previously described in Hancock, et al., Antimicrobial Agents and Chemo., 19:777; 1981. Overnight cultures of P. aeruginosa H309 or E. cloacae 218R1 grown in LB-S were diluted 1 in 50 in fresh medium and grown to an OD600 ≈ 0.5-0.6. The cells were harvested in a Silencer H-103N clinical centrifuge at 1800 g for 10 min, washed once with one volume of assay buffer (5 mM HEPES pH 7.2, 5 mM KCN), and resuspended in the same buffer to an OD600 of 0.5. Assays consisted of 600 µl of cells with 50 µg/ml of chicken egg white lysozyme and varying concentrations of cationic compounds. Cell lysis was measured as a decrease in the OD600 in a Perkin-Emmer dual beam spectrophotometer. Parallel experiments performed without lysozyme enabled the measurement of the lytic activity of the compounds themselves. To test whether or not permeability to lysozyme could be inhibited by divalent cations, various concentrations of MgCl2 were added to the assay after the addition of lysozyme and before the addition of the test compound.

A short description of assay [3]: Synergy: MIC of antibiotics in the presence of sub-MIC levels of cationic peptides. Format: cell-based. The protocol: as §1
The ability of the cationic peptides to work synergystically was examined by determining the MIC values for some commonly used antibiotics in the presence of sub-MIC levels of cationic peptides (Table 4). […] This may be due to the high membrane permeabilizing activity of CEMA (see below). However, the peptides did lower the MIC of polymyxin B, possibly due to the fact that they are all taken up by the same pathway and are therefore aiding each other's uptake. […]

A further assay relates to P. aeruginosa. The experiment in a line: 1-N-phenylnaphthylamine (NPN) uptake assay. The format is cell-based. To be noted: 10 µM NPN, FIGURE 7. The source says:
(§2) The second assay determined membrane permeability by the ability of 1-N-phenylnaphthylamine (NPN), a small fluorescent probe, to insert itself into the membrane. Normally, very little NPN can penetrate the outer membrane, but in the presence of a membrane permeabilizer it can insert into the hydrophobic membrane resulting in an increase in fluorescence (FIGURES 7 and 8). This N-phenylnaphthylamine uptake assay was previously described by Loh, et al., Antimicrobial Agents and Chemo., 26:546, 1984. Cells were prepared exactly the same as for the lysozyme lysis assay. 1-N-phenylnaphthylamine (NPN) was dissolved in acetone at a concentration of 500 µM. NPN fluorescence was measured in a Perkin-Elmer 650-10S fluorescent spectrophotometer using excitation and emission wavelengths set to 350 nm and 420 nm respectively, with slit widths of 5 nm. The assay was standardized by adding 20 µl of NPN (final concentration of 10 µM) and 10µl of 0.64 mg/ml of polymyxin B (final concentration of 6.4 µg/ml) into 1 ml of cells, and adjusting the resulting fluorescence to read 90% deflection (90 arbitrary units). Various compounds were tested by adding 10 µl of different concentrations to a cuvette containing 1 ml of cells and 10 µM NPN. Permeabilizing activity was designated as the total fluorescence minus the fluorescence due to NPN alone. Following the fluorescence measurement, the OD600 of the cells was taken to ensure no significant cell lysis had occurred.

In a further assay the test system is E. coli strain DC2. As to the kind of experiment: Acid-urea gel overlay antibacterial activity test. Format: cell-based. To be noted: acid-urea gel overlaid with agar containing ≈ 10^5 E. coli strain DC2, overnight at 37°C. On the procedure: A sample of the partially purified CEME protein was electrophoresed on a 15% acid-urea gel, which separates proteins based on charge and mass (Panyim and Chalkey, Arch. Biochem. Biophys., 130:337, 1969). The pH of the buffer is acidic (≈ pH 5.0) and the polarity is reversed such that proteins migrate to the cathode. Therefore, the small cationic peptides run relatively quickly through the gel and thus can be easily identified. Antibacterial activity was tested as previously described (Hultmark, Eur. J. Biochem., 106:7, 1980). The gel was incubated in Mueller Hinton broth + 0.2M NaPO4 pH 7.4 for 1 hr. It was overlaid with 5 mls of the same media containing 0.6% agar and ≈ 10^5 E. coli strain DC2, and then again with 5 ml of the same media containing only 0.6% agar. […] Melittin is used as a positive control due to its antibacterial activity and similarity in size and PI values.

The next assay concerns P. aeruginosa LPS. The experiment in a line: Dansyl polymyxin (DPx) displacement assay with purified LPS. The format is binding. To be noted: on a µM basis, compared with polymyxin B. On the procedure: DPx is a derivative of polymyxin that fluoresces strongly when bound to LPS, but weakly when free in solution. In this assay, DPx was incubated with LPS to saturate the binding sites and then, while polycationic compounds are titrated into the reaction, displacement of the DPx was monitored by the decrease in fluorescence (FIGURE 9). P. aeruginosa LPS was isolated as previously described (Darveau, et al., J. of Bacteriology, 155:831, 1983) Dansyl polymyxin was synthesized as described by Schindler, et al., B. Antimicrobial Agents and Chemo, 8:95, 1975.
Briefly, 40 mgs of polymyxin B and 10 mgs of dansyl chloride were mixed in 2 mls of 60 mM NaHC03 and 40% acetone and incubated in the dark for 90 minutes. […] The dansyl polymyxin was resuspended in 5 mM Hepes pH 7.0, quantitated by dinitrophenylation and stored in aliquots at -20°C.
The method of Moore, et al., (Antimicrobial Agents end Chemo., 29:496, 1987), was used to test how much DPx was needed to saturate the binding sties on LPS. Briefly, 5 µl samples of 100 µM DPx were titrated sequentially into 1ml of 3 µg/ml of LPS until a maximum fluorescence was reached. The fluorescence was measured in a Perkin-Elmer 650-10S fluorescence spectrophotometer with an excitation wavelength of 340 nm and an emission wavelength of 485 nm using slit widths of 5 nm. […]

The subject of a further assay is E. cloacae. The experiment in a line: 1-N-phenylnaphthylamine (NPN) uptake assay. Format: cell-based. To be noted: 10 µM NPN, FIGURE 8.
Source text: as §2

In the case of `CC(C)(O/N=C(\C(=O)N[C@@H]1C(=O)N2C(C(=O)[O-])=C(C[n+]3ccccc3)CS[C@H]12)c1csc(N)n1)C(=O)O` [ceftazidime], the “resistance of the mutant SC9252” value in assay [1] is “increased resistance”. Further, the “sensitivity of the S. typhimurium defensin sensitive strain (C590)” value (“sensitivity” below) in assay [2] is on record as “unchanged”.

As to gentamicin, in assay [2], the “sensitivity” value was “two-fold more sensitive”.

Regarding melittin, the “permeabilizer for lysozyme relative to gentamicin” value in the assay on P. aeruginosa H309 (lysis without lysozyme taken into consideration) is listed as 5- to 10 fold. In the assay with P. aeruginosa H309 (increased concentrations of peptide), the “cell lysis in the absence of lysozyme” value was “cell lysis in the absence of lysozyme occurred”. The “effect on the MIC of polymyxin B” value in assay [3] is “lower than those in the presence of CEME and CEMA”. In addition, the “opening up the membrane to NPN” value in the assay with P. aeruginosa is reported as “less active”. The “zones of clearing at the migration site” value in the assay with E. coli strain DC2 is on record as “zones of clearing”. Besides, in the assay with P. aeruginosa LPS, the “affinity for LPS (I50)” value was “slightly lower affinities”. Besides, the “sensitivity” value in assay [2] was “two-fold more sensitive”.

polymyxin B: the “opening up the membrane to NPN” value in the assay with P. aeruginosa and in the assay with E. cloacae was “equally active” throughout. Moreover, the “resistance of the mutant SC9252” value in assay [1] is “increased resistance”. The “sensitivity” value in assay [2] was “four-fold more sensitive”.

These data come from patent publication EP0656952B1, “CATIONIC PEPTIDES AND METHOD FOR PRODUCTION” (THE UNIVERSITY OF BRITISH COLUMBIA, priority 1992, dated 1994).
